The values below come from US20230242948A1, “OLEIC ACID PRODUCED FROM MICROORGANISM AND METHOD FOR PRODUCING OLEIC ACID USING MICROORGANISM” (KOREA INSTITUTE OF SCIENCE AND TECHNOLOGY, priority 2022, published 2023).

What all share (format): cell-based
Experiment [1] deals with wild-type Yarrowia lipolytica (ATCC MYA-2613). The experiment in a line: Culture of wild-type lipid-producing microorganism in glucose minimal medium with or without hexanoic acid (Test Example 1). As to conditions: 1 g/L hexanoic acid. As to the method:
As an exemplary embodiment of the present disclosure, wild-type Yarrowia lipolytica (microorganism accession number ATCC MYA-2613) was inoculated to a minimal medium containing glucose as a carbon source (20 g/L glucose, 6.7 g/L yeast nitrogen base, CSM-ura (MP Biomedicals, Solon, USA), pH 6.8 potassium phosphate buffer) and supplemented with 1 g/L hexanoic acid. Then shaking culture was conducted at 28° C. and 200 rpm. After culturing for 144-168 hours, the microorganism was separated from the culture through centrifugation.
After inoculating wild-type Yarrowia lipolytica (microorganism accession number ATCC MYA-2613) to a minimal medium containing glucose as a carbon source (20 g/L glucose, 6.7 g/L yeast nitrogen base, CSM-ura (MP Biomedicals, Solon, USA), pH 6.8 potassium phosphate buffer), shaking culture was conducted at 28° C. and 200 rpm. After culturing for 144-168 hours, the microorganism was separated from the culture through centrifugation.
(§1) In order to investigate the consumption of the carbon source in the medium and the content of the produced lipids depending on the addition of hexanoic acid during the culturing of the lipid-producing microorganisms, the amount of biomass (dry cell weight) and lipids produced from the microorganisms isolated in Examples 1-2 and Comparative Examples 1-2 was measured. The amount of produced oleic acid was calculated through lipid assay and the amount of consumed glucose was measured form the separated cultures.

In experiment [2] the test system is recombinant Yarrowia lipolytica. The experiment in a line: Culture of recombinant lipid-producing microorganism (peroxisomal biogenesis factor 10 deleted, diacylglycerol acyltransferase overexpressed) in glucose minimal medium with or without hexanoic acid (Test Example 1). As to the method:
(§2) As an exemplary embodiment of the present disclosure, after deleting peroxisomal biogenesis factor 10 (SEQ ID NO 1), which is a lipid degradation-related gene, from the wild-type Yarrowia lipolytica (microorganism accession number ATCC MYA-2613) of Example 1 using the CRISPR/Cas9 system, a lipid-producing microorganism was prepared by overexpressing diacylglycerol acyltransferase, which is a key gene in a lipid-producing metabolic pathway, using a vector (pMCS-12TEF-DGA1-CYC1t, SEQ ID NO 3) comprising a UAS1B enhancer, a TEF (translational elongation factor) promoter and a gene encoding diacylglycerol acyltransferase (SEQ ID NO 2). Then, after inoculating the microorganism to a minimal medium containing glucose as a carbon source (20 g/L glucose, 6.7 g/L yeast nitrogen base, CSM-ura (MP Biomedicals, Solon, USA), pH 6.8 potassium phosphate buffer) and supplemented with 1 g/L hexanoic acid, shaking culture was conducted at 28° C. and 200 rpm. After culturing for 144-168 hours, the microorganism was separated from the culture through centrifugation.
as §2, with “After” for “As an exemplary embodiment of the present disclosure, after”, “buffer),” for “buffer) and supplemented with 1 g/L hexanoic acid,”
as §1

Experiment [3] has as its system transformed Yarrowia lipolytica. The experiment in a line: Oleic acid production depending on concentration of added hexanoic acid, glucose and xylose medium (Test Example 2). As to conditions: for oleic acid concentration increased by / oleic acid content increased by / oleic acid concentration: 168 hours; for oleic acid concentration increased by / oleic acid content increased by: vs Comparative Example 3; for oleic acid concentration: 0.377 g/L without hexanoic acid. The procedure:
Specifically, wild-type Yarrowia lipolytica was transformed in the same manner as in Example 2 and hexanoic acid at 0 g/L (Comparative Example 3), 0.2 g/L (Example 3), 0.6 g/L (Example 4) or 1 g/L (Example 5) was added to a minimal medium containing 20 g/L glucose and 10 g/L xylose as carbon sources (20 g/L glucose, 10 g/L xylose, 6.7 g/L yeast nitrogen base, CSM-ura (MP Biomedicals, Solon, USA), pH 6.8 potassium phosphate buffer). Then, after inoculating the transformed microorganism to the medium, shaking culture was conducted at 28° C. and 200 rpm. After culturing for 168 hours, the microorganism was separated from the culture through centrifugation and the amount of produced lipids was measured from the separated strain. The amount of produced oleic acid was calculated through lipid assay and the amount of glucose and xylose consumed as carbon sources was measured from the separated culture.

[4] abbreviates: Example 3, 0.2 g/L hexanoic acid.
[5] abbreviates: Example 4, 0.6 g/L hexanoic acid.

With `CCCCCC(=O)O` [hexanoic acid], the “lipid production (in words)” value in experiment [1] is “not increased significantly”. The “consumption rate of the carbon source glucose” value was “increased” in experiment [1] (20 g/L glucose, 28° C., FIG. 1) and “increased” in experiment [2] (Example 2, 1 g/L hexanoic acid, 20 g/L glucose, 28° C., FIG. 1). Besides, the “increase of lipid production as compared to Comparative Example 1” value in experiment [1] (144-168 hours, FIG. 2) was “about 10%”. Further, the “content of oleic acid in the produced lipids” value in experiment [1] (FIG. 3) is 66%; in experiment [2] (Example 2, 1 g/L hexanoic acid, FIG. 3), around 61%. Further, in experiment [2] (1 g/L hexanoic acid, 144-168 hours, FIG. 2), the “increase of lipid production as compared to Comparative Example 2” value is given as “about 10%”. Also, the intracellular lipid content in experiment [2] (Example 2, 1 g/L hexanoic acid, 50.3% without hexanoic acid (Comparative Example 2)) came out at 73.8%. Also, the “relative oleic acid production as compared to Comparative Example 1 (wild-type strain, medium not comprising hexanoic acid)” value in experiment [2] (Example 2, recombinant strain plus 1 g/L hexanoic acid, FIG. 4) is recorded as “about 3.3 times”. Further, the “oleic acid concentration increased by” value in experiment [3] (setting [4]) is recorded as 10.5%; in experiment [3] (setting [5]), 40.3%; in experiment [3] (Example 5, 1 g/L hexanoic acid), 61.2%. Further, the “oleic acid content increased by” value was found to be 27.4% in experiment [3] (setting [4]); 40.1% in experiment [3] (setting [5]); 52.1% in experiment [3] (Example 5, 1 g/L hexanoic acid). For the same compound, the oleic acid concentration in experiment [3] (setting [4]) is given as 0.417 g/L; in experiment [3] (setting [5]), 0.529 g/L; in experiment [3] (Example 5, 1 g/L hexanoic acid) it was 0.608 g/L. The consumption of xylose result in experiment [3] (hexanoic acid added to medium with 20 g/L glucose and 10 g/L xylose, FIG. 8) is given as “increased remarkably”.
